Measured values reported in article PMC7179119, “A New Positron Emission Tomography Probe for Orexin Receptors Neuroimaging” (Molecules, 2020).
Like-named read-outs stand apart in the source and are kept apart here.

Columns and labels:
Assay in all cases: PDSP off-target radioligand binding assay
5-HT1B = molecular target: T1, 5-HT1B (Homo sapiens, UniProt P28222)
T1 construct: NIMH PDSP
Description: (§1) Table S1. Off binding data of CW24.
(§2) The off-target binding assays were performed at PDSP with their standard protocol (https://pdspdb.unc.edu/pdspWeb/content/UNC-CH%20Protocol%20Book.pdf). In radioligand binding assays, CW24 was tested at a single concentration (10 µM) and in quadruplicate in 96-well plates. The binding assays were carried out in a final of volume of 125 µl per well in appropriate binding buffers. The hot ligand concentration is usually at a concentration close to the Kd (unless otherwise indicated). Total binding and nonspecific binding are determined in the absence and presence of 10 µM of the appropriate reference compound, respectively. In brief, plates are usually incubated at room temperature and in the dark for 90 mins. Reactions are stopped by vacuum filtration onto 0.3% polyethyleneimine (PEI) soaked 96-well filter mats using a 96-well Filtermate harvester, followed by three washes with cold wash buffers (for details, see Tables 2 to 24). Scintillation cocktail is then melted onto the microwave-dried filters on a hot plate and radioactivity is counted in a Microbeta counter.
(§3) Receptor % Inhibition 1 % Inhibition 2 % Inhibition 3 % Inhibition 4 Mean±SD %

5-HT1D = molecular target: T2, 5-HT1D (Homo sapiens, UniProt P28221)
T2 construct: NIMH PDSP
T2 sequence (P28221 whole entry, species assumed): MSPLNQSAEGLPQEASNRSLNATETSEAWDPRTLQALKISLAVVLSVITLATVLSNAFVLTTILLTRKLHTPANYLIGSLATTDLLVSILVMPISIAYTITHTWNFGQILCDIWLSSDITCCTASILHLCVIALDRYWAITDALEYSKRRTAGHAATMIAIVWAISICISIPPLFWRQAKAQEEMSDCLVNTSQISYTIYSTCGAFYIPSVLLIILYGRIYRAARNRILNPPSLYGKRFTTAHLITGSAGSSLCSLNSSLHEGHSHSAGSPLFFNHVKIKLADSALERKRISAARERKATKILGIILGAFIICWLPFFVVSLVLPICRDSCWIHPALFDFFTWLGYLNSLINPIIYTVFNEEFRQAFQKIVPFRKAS
Description: as §1, §2, §3

5-HT1E = molecular target: T3, 5-HT1E (Homo sapiens, UniProt P28566)
T3 construct: NIMH PDSP
T3 sequence (P28566 whole entry, species assumed): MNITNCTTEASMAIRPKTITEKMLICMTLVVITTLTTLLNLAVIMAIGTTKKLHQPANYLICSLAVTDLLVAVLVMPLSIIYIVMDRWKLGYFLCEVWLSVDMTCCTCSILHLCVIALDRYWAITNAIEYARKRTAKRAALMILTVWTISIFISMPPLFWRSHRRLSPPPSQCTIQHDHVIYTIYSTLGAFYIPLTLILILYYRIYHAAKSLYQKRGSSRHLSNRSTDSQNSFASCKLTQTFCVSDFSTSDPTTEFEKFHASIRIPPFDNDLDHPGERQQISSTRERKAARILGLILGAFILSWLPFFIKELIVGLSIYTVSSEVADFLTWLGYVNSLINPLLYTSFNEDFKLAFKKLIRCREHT
Description: as §1, §2, §3

5-HT7A = molecular target: T4, 5-HT7A (Homo sapiens, UniProt P34969)
T4 construct: NIMH PDSP
T4 sequence (P34969 1-445 isoform P34969-2): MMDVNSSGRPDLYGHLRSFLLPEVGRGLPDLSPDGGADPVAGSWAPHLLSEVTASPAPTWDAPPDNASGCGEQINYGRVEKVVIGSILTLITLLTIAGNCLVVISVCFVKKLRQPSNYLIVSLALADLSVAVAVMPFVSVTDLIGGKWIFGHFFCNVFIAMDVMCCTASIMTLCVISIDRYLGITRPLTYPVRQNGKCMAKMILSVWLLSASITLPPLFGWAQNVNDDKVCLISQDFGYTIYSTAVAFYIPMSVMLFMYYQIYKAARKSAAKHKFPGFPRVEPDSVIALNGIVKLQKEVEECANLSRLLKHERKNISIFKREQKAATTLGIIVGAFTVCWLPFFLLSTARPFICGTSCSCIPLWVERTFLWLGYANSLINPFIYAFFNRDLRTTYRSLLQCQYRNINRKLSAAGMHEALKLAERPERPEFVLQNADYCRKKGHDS
Description: as §1, §2, §3

Alpha1D = molecular target: T5, Alpha1D (Homo sapiens, UniProt P25100)
T5 construct: NIMH PDSP
T5 sequence (P25100 1-572): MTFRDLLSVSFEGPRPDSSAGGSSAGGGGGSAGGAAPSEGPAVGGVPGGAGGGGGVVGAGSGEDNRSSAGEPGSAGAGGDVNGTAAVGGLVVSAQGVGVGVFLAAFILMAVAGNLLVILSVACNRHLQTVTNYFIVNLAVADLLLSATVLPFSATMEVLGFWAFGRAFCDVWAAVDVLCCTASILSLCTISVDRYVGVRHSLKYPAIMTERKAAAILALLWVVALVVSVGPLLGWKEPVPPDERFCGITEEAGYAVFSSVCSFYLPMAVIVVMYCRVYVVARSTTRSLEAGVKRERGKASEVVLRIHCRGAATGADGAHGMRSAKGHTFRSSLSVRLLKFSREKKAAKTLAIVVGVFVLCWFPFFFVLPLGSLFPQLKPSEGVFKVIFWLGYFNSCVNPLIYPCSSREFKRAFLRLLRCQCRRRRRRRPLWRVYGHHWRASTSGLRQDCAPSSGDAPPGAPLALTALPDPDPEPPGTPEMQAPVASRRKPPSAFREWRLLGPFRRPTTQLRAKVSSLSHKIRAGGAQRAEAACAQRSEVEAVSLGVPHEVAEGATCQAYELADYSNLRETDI
Description: as §1, §2, §3

D3 = molecular target: T6, D3 (Homo sapiens, UniProt P35462)
T6 construct: NIMH PDSP
T6 sequence (P35462 whole entry): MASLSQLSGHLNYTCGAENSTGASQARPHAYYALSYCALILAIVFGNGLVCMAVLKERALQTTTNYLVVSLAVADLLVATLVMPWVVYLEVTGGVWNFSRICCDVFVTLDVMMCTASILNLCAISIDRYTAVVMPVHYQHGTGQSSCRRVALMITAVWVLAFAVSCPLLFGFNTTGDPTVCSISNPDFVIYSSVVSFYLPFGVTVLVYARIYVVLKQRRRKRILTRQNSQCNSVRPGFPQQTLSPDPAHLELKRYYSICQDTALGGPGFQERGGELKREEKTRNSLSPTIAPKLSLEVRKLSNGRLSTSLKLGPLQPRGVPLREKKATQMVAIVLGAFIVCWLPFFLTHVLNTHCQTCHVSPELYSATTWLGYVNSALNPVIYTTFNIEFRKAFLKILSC
Description: as §1, §2, §3

DOR = DOR (Homo sapiens, UniProt P41143)
DOR, sequence (P41143 whole entry): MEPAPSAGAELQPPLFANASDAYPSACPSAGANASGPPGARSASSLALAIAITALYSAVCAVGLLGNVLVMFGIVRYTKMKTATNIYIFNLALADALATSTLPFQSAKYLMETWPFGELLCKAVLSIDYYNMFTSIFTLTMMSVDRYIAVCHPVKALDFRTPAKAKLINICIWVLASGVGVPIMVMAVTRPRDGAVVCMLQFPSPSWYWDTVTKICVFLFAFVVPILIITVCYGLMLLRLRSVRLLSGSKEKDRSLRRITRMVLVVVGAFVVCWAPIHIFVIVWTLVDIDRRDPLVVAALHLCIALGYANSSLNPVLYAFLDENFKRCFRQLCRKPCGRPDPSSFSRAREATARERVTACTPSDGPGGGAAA
Description: as §1, §2, §3

M2 = molecular target: T7, M2 (Homo sapiens, UniProt P08172)
T7 sequence (P08172 1-466): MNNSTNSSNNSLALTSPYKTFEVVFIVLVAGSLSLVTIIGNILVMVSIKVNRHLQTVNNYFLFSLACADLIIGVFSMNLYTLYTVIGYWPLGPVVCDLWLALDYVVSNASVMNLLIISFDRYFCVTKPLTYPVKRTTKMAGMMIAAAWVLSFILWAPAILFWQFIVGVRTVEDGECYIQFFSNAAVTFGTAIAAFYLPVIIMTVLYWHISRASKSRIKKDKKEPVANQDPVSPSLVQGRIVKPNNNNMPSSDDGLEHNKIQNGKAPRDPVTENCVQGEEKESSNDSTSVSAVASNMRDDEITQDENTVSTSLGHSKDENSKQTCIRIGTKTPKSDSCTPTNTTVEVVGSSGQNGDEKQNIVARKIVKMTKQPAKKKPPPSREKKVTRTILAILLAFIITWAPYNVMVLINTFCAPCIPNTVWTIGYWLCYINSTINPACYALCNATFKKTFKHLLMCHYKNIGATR
Description: as §1, §2, §3

MOR = MOR (Homo sapiens, UniProt P35372)
MOR, sequence (P35372 whole entry): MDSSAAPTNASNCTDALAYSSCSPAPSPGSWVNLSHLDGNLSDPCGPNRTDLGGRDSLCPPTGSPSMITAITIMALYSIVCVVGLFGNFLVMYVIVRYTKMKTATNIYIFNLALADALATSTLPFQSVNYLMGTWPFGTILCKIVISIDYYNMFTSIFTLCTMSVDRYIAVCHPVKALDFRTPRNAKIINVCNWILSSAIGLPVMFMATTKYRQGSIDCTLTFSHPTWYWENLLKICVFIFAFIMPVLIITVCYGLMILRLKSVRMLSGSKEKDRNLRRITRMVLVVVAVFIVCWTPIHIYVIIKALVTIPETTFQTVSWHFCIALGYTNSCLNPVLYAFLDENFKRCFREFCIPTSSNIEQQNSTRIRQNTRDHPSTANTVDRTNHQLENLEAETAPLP
Description: as §1, §2, §3

SERT = SERT (Homo sapiens, UniProt P31645)
SERT, sequence (P31645 whole entry, species assumed): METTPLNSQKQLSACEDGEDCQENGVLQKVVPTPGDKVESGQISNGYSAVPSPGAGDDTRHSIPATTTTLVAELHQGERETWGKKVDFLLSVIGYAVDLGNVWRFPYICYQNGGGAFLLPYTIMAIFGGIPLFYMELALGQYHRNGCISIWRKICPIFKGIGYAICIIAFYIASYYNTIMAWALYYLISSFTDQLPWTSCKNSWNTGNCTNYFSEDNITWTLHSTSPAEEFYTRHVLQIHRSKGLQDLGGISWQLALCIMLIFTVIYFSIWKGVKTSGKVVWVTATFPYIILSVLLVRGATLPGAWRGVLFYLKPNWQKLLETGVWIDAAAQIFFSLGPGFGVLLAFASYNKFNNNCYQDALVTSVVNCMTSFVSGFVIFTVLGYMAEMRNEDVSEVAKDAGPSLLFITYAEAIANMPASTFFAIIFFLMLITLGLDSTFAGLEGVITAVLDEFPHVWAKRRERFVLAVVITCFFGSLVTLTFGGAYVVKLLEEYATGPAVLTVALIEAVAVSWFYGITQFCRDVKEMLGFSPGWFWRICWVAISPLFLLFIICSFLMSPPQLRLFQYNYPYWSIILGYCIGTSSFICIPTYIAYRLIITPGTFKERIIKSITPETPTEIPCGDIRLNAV
Description: as §1, §2, §3

[1] = quadruplicate, read-out: Mean±SD % inhibition
[2] = replicate 1, read-out: % Inhibition 1
[3] = replicate 2, read-out: % Inhibition 2
[4] = replicate 3, read-out: % Inhibition 3
[5] = replicate 4, read-out: % Inhibition 4

T1 sequence (P28222 whole entry, species assumed): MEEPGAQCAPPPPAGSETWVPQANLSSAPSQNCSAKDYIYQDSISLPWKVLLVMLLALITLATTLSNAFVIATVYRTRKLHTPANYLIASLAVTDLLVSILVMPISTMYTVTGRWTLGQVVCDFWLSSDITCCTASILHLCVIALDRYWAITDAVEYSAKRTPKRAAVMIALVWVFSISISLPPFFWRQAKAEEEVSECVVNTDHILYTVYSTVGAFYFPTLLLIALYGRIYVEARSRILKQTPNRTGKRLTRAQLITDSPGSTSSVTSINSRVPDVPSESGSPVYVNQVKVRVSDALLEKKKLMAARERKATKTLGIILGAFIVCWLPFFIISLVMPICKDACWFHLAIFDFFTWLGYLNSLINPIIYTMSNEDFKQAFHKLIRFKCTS

## COc1ccnc(N2CCC3(CCCN(Cc4cn(C)c5ccccc45)C3=O)CC2)n1 [CW24]
5-HT1B; [1]
  inhibition at 10 µM: 13.4 ± 6.1%
5-HT1B; [2]
  inhibition at 10 µM: 19%
5-HT1B; [3]
  inhibition at 10 µM: 18%
5-HT1B; [4]
  inhibition at 10 µM: 6.23%
5-HT1B; [5]
  inhibition at 10 µM: 10.4%
5-HT1D; [1]
  inhibition at 10 µM: 23.5 ± 9.4%
5-HT1D; [2]
  inhibition at 10 µM: 32.1%
5-HT1D; [3]
  inhibition at 10 µM: 20%
5-HT1D; [4]
  inhibition at 10 µM: 11.9%
5-HT1D; [5]
  inhibition at 10 µM: 30.2%
5-HT1E; [1]
  inhibition at 10 µM: 18.8 ± 12.2%
5-HT1E; [2]
  inhibition at 10 µM: 31.3%
5-HT1E; [3]
  inhibition at 10 µM: 19.5%
5-HT1E; [4]
  inhibition at 10 µM: 22.5%
5-HT1E; [5]
  inhibition at 10 µM: 2.07%
5-HT7A; [1]
  inhibition at 10 µM: -54.8 ± 29.3%
5-HT7A; [2]
  inhibition at 10 µM: -92.7%
5-HT7A; [3]
  inhibition at 10 µM: -50.8%
5-HT7A; [4]
  inhibition at 10 µM: -54.3%
5-HT7A; [5]
  inhibition at 10 µM: -21.2%
Alpha1D; [1]
  inhibition at 10 µM: -13.7 ± 16.7%
Alpha1D; [2]
  inhibition at 10 µM: 6.91%
Alpha1D; [3]
  inhibition at 10 µM: -32.8%
Alpha1D; [4]
  inhibition at 10 µM: -9.43%
Alpha1D; [5]
  inhibition at 10 µM: -19.4%
D3; [1]
  inhibition at 10 µM: -4.9 ± 5.5%
D3; [2]
  inhibition at 10 µM: 3.09%
D3; [3]
  inhibition at 10 µM: -9.41%
D3; [4]
  inhibition at 10 µM: -6.79%
D3; [5]
  inhibition at 10 µM: -6.5%
DOR; [1]
  inhibition at 10 µM: 13.9 ± 19.1%
DOR; [2]
  inhibition at 10 µM: 41%
DOR; [3]
  inhibition at 10 µM: 8.06%
DOR; [4]
  inhibition at 10 µM: 10.6%
DOR; [5]
  inhibition at 10 µM: -3.98%
M2; [1]
  inhibition at 10 µM: -0.08 ± 16.7%
M2; [2]
  inhibition at 10 µM: -1.12%
M2; [3]
  inhibition at 10 µM: -4.61%
M2; [4]
  inhibition at 10 µM: -17.4%
M2; [5]
  inhibition at 10 µM: 22.8%
MOR; [1]
  inhibition at 10 µM: -2.04 ± 10.4%
MOR; [2]
  inhibition at 10 µM: 5.06%
MOR; [3]
  inhibition at 10 µM: -11.3%
MOR; [4]
  inhibition at 10 µM: 8.74%
MOR; [5]
  inhibition at 10 µM: -10.6%
SERT; [1]
  inhibition at 10 µM: 10.8 ± 11.9%
SERT; [2]
  inhibition at 10 µM: 10.6%
SERT; [3]
  inhibition at 10 µM: -3.59%
SERT; [4]
  inhibition at 10 µM: 10.6%
SERT; [5]
  inhibition at 10 µM: 25.6%
